For one experiment, the system named is hepatitis B virus (HBV). Put plainly: Serum HBV DNA in mouse model of HBV (pHBV1.3 hydrodynamic injection), quantitative PCR. The class given is in vivo, NOD.CB17-Prkdc^scid/J mice. Conditions: mean ± SEM. The method, then:
A mouse model of hepatitis B virus (HBV) was used to assess the anti-HBV effects of a small molecule inhibitor of HBV encapsidation (Compound 3) and HBV-targeting siRNAs, both as independent treatments and in combination with each other.
On Day −7, 10 micrograms of the plasmid pHBV1.3 (as per Guidotti, L., et al., Journal of Virology, 1995, 69(10): 6158-6169) was administered to NOD.CB17-Prkdc^scid/J mice via hydrodynamic injection (HDI; rapid 1.6 mL injection into the tail vein). […] As a readout of the anti-HBV effect of various treatments, serum HBV DNA concentration in mice was measured from total extracted DNA using a quantitative PCR assay (primer/probe sequences from Tanaka, Y., et al., Journal of Medical Virology, 2004, 72: 223-229).
Animals were treated with Compound 3 as follows: Starting on Day 0, a 50 mg/kg or 100 mg/kg dosage of Compound 3 was administered orally to animals on a twice-daily frequency for a total of fourteen doses between Days 0 and 7. Compound 3 was dissolved in a co-solvent formulation for administration. Negative control animals were administered either the co-solvent formulation alone, or saline. Animals were treated with lipid nanoparticle (LNP)-encapsulated HBV-targeting siRNAs as follows: On Day 0, an amount of test article equivalent to 0.1 mg/kg siRNA was administered intravenously.
The effect of these treatments was determined by collecting blood on Days 0 (pre-treatment), 4 & 7 and analyzing it for serum HBV DNA content.
Animals were treated with Compound 3 as follows: Starting on Day 0, a 100 mg/kg dosage of Compound 3 was administered orally to animals on a twice-daily frequency for a total of fourteen doses between Days 0 and 7. Compound 3 was dissolved in a co-solvent formulation for administration. Negative control animals were administered either the co-solvent formulation alone, or saline. Animals were treated with ETV as follows: Starting on Day 0, either a 100 ng/kg or a 300 ng/kg dosage of ETV was administered orally to animals on a once-daily frequency for a total of seven doses between Days 0 and 6. ETV was dissolved in DMSO to 2 mg/mL and then diluted in saline for administration.
The effect of these treatments was determined by collecting blood on Days 0 (pre-treatment), 4 & 7 and analyzing it for serum HBV DNA content. Samples with Ct values below the lower limit of quantitation (LLOQ) were set to one-half LLOQ for calculation of group means.

Experiment [1] concerns HBV rcDNA in HepDE19 cells. Put plainly: Inhibition of rcDNA in HepDE19 cells (bDNA assay), checkerboard, MacSynergy II. The class given is cell-based, HBV (human hepatoma cell line). More on the design: key to ADDITIVE INHIBITION: % inhibition of rcDNA production. As to conditions: for ADDITIVE INHIBITION: GLS-4 0 μM; for inhibition at 0.000125 µM: ETV 0.125 nM alone. Here is the method:
In vitro combination studies were conducted using the method of Prichard and Shipman (Prichard M N, and Shipman C Jr., Antiviral Research, 1990, 14(4-5), 181-205; and Prichard M N, et. al., MacSynergy II). HepDE19 cell culture system is a HepG2 (human hepatocarcinoma) derived cell line that supports HBV DNA replication and cccDNA formation in a tetracycline (Tet)-regulated manner and produces HBV rcDNA and a detectable reporter molecule dependent on the production and maintenance of cccDNA (Guo et al 2007. J. Virol 81:12472-12484). HepDE19 (50,000 cells/well) were plated in 96 well collagen-coated tissue-culture treated microtiter plates in DMEM/F12 medium supplemented with 10% fetal bovine serum, 1% penicillin-streptomycin and 1 μg/ml tetracycline and incubated in a humidified incubator at 37° C. and 5% CO2 overnight. Next day, the cells were switched to fresh medium without tetracycline and incubated for 4 hrs at 37° C. and 5% CO2. […] The two inhibitors were tested both singly as well as in combinations in a checkerboard fashion such that each concentration of inhibitor A was combined with each concentration of inhibitor B to determine their combination effects on inhibition of rcDNA production. Following a 7 day-incubation of cells with compound combinations, the level of rcDNA present in the inhibitor-treated wells was measured using a Quantigene 2.0 bDNA assay kit (Affymetrix, Santa Clara, CA) with HBV specific custom probe set and manufacturers instructions. […] The RLU data from the single compound treated cells were analyzed using XL-Fit module in Microsoft Excel to determine EC50 values using a 4-parameter curve fitting algorithm. Concurrently, the effect of compounds on cell viability was assessed using replicate plates, plated at a density of 5,000 cells/well and incubated for 4 days, to determine the ATP content as a measure of cell viability using the cell-titer glo reagent (CTG; Promega Corporation, Madison, WI) as per manufacturer's instructions.
In vitro combination studies were conducted using the method of Prichard and Shipman (Prichard M N, Shipman C, Jr., Antiviral Res, 14, 181-205 (1990)). The HepDE19 cell line was developed as described in Guo et al. (Guo et al., J Virol, 81, 12472-12484 (2007)). It is a human hepatoma cell line stably transfected with the HBV genome, and which can express HBV pregenomic RNA and support HBV rcDNA (relaxed circular DNA) synthesis in a tetracycline-regulated manner. HepDE19 cells were plated in 96 well tissue-culture treated microtiter plates in DMEM/F12 medium supplemented with 10% fetal bovine serum+1% penicillin-streptomycin without tetracycline and incubated in a humidified incubator at 37° C. and 5% CO2 overnight. […] The two inhibitors were tested both singly as well as in combinations in a checkerboard fashion such that each concentration of inhibitor A was combined with each concentration of inhibitor B to determine their combination effects on inhibition of rcDNA production. Following a 48 hour-incubation, the level of rcDNA present in the inhibitor-treated wells was measured using a bDNA assay (Affymetrix) with HBV specific custom probe set and manufacturers instructions. […] Concurrently, the effect of inhibitor combinations on cell viability was assessed using replicate plates that were used to determine the ATP content as a measure of cell viability using the Cell-TiterGlo reagent (Promega) as per manufacturer's instructions.
In vitro combination studies were conducted using the method of Prichard and Shipman (1990) (Prichard M N, Shipman C, Jr. 1990. A three-dimensional model to analyze drug-drug interactions. Antiviral Res 14:181-205 AND Prichard M N. 1992. MacSynergy II, University of Michigan).

Where two headings read alike, the source gives them in different places.

Regarding `CC[C@@H](C)NS(=O)(=O)c1ccc(F)c(C(=O)Nc2ccc(F)c(F)c2)c1` [Compound 3], the “Serum HBV DNA as percentage of individual pre-treatment baseline” value with hepatitis B virus (HBV) (Table 2, Day 0 (pre-treatment), Compound 3 50 mg/kg oral twice daily, alone or with HBV siRNA 0.1 mg/kg IV Day 0) was 100 ± 0%; with hepatitis B virus (HBV) (Table 2, Day 0 (pre-treatment), Compound 3 100 mg/kg oral twice daily, alone or with HBV siRNA 0.1 mg/kg IV Day 0), 100 ± 0%; in the experiment with hepatitis B virus (HBV) (Table 3, Day 0 (pre-treatment), Compound 3 100 mg/kg oral twice daily alone), 100 ± 0%. Moreover, the “ADDITIVE INHIBITION” value is reported as 11.14 in experiment [1] (Compound 3 0.040 μM), 19.99 in experiment [1] (Compound 3 0.110 μM), 56.68 in experiment [1] (Compound 3 0.330 μM) and 86.87 in experiment [1] (Compound 3 1.000 μM).
Take `C=C1[C@H](CO)[C@@H](O)C[C@@H]1n1cnc2c(=O)[nH]c(N)nc21` [ETV, Entecavir]: the “Serum HBV DNA as percentage of individual pre-treatment baseline” value worked out at 100 ± 0% in the experiment with hepatitis B virus (HBV) (Table 3, Day 0 (pre-treatment), ETV 100 ng/kg oral once daily, alone or with Compound 3 100 mg/kg oral twice daily); 100 ± 0% in the experiment with hepatitis B virus (HBV) (Table 3, Day 0 (pre-treatment), ETV 300 ng/kg oral once daily, alone or with Compound 3 100 mg/kg oral twice daily); 21 ± 5% in the experiment on hepatitis B virus (HBV) (Table 3, Day 4, ETV 100 ng/kg oral once daily, alone or with Compound 3 100 mg/kg oral twice daily); 1.6 ± 0.3% with hepatitis B virus (HBV) (Table 3, Day 4, ETV 300 ng/kg oral once daily, alone or with Compound 3 100 mg/kg oral twice daily); 3.5 ± 0.7% with hepatitis B virus (HBV) (Table 3, Day 7, ETV 100 ng/kg oral once daily, alone or with Compound 3 100 mg/kg oral twice daily); 0.88 ± 0.31% in the experiment on hepatitis B virus (HBV) (Table 3, Day 7, ETV 300 ng/kg oral once daily, alone or with Compound 3 100 mg/kg oral twice daily). Moreover, in experiment [1] (Hepatitis B virus, HepDE19, ETV 0.015625 nM alone, read-out: Additive inhibition (rcDNA)), the inhibition at 15.63 pM was -43.7%. In addition, in experiment [1] (Hepatitis B virus, HepDE19, ETV 0.016 nM alone), the inhibition at 16 pM is -43.7%. For the same compound, the inhibition at 31 pM in experiment [1] (Hepatitis B virus, HepDE19, ETV 0.031 nM alone) is -50.1%. Further, the inhibition at 31.25 pM in experiment [1] (Hepatitis B virus, HepDE19, ETV 0.03125 nM alone, read-out: Additive inhibition (rcDNA)) was -50.1%. Moreover, in experiment [1] (Hepatitis B virus, HepDE19, ETV 0.0625 nM alone, read-out: Additive inhibition (rcDNA)), the inhibition at 62.5 pM was -30.3%. Also, the inhibition at 63 pM in experiment [1] (Hepatitis B virus, HepDE19, ETV 0.063 nM alone) is -30.3%. In addition, the inhibition at 0.000125 µM was -23.5% in experiment [1] (Hepatitis B virus, HepDE19, read-out: Additive inhibition (rcDNA)) and -23.5% in experiment [1] (Hepatitis B virus, HepDE19, read-out: Average % inhibition (rcDNA)). Besides, the inhibition at 0.00025 µM in experiment [1] (Hepatitis B virus, HepDE19, ETV 0.25 nM alone, read-out: Additive inhibition (rcDNA)) was -21.2%; in experiment [1] (Hepatitis B virus, HepDE19, ETV 0.250 nM alone, read-out: Average % inhibition (rcDNA)), -21.2%. For the same compound, the inhibition at 0.0005 µM was -10.2% in experiment [1] (Hepatitis B virus, HepDE19, ETV 0.5 nM alone, read-out: Additive inhibition (rcDNA)) and -10.2% in experiment [1] (Hepatitis B virus, HepDE19, ETV 0.500 nM alone, read-out: Average % inhibition (rcDNA)). The inhibition at 0.001 µM in experiment [1] (Hepatitis B virus, HepDE19, ETV 1 nM alone, read-out: Additive inhibition (rcDNA)) was determined as 41.7%; in experiment [1] (Hepatitis B virus, HepDE19, ETV 1.000 nM alone, read-out: Average % inhibition (rcDNA)), 41.7%. Besides, the inhibition at 0.002 µM was found to be 58.4% in experiment [1] (Hepatitis B virus, HepDE19, ETV 2 nM alone, read-out: Additive inhibition (rcDNA)) and 58.4% in experiment [1] (Hepatitis B virus, HepDE19, ETV 2.000 nM alone, read-out: Average % inhibition (rcDNA)). Further, the inhibition at 0.004 µM in experiment [1] (Hepatitis B virus, HepDE19, ETV 4 nM alone, read-out: Additive inhibition (rcDNA)) worked out at 70%; in experiment [1] (Hepatitis B virus, HepDE19, ETV 4.000 nM alone, read-out: Average % inhibition (rcDNA)) it was 70%.

A word on the inhibition: it is the relative decrease from the control value, in per cent.

For the origin of these results see US20240050463A1, “THERAPEUTIC COMPOSITIONS AND METHODS FOR TREATING HEPATITIS B” (ARBUTUS BIOPHARMA CORPORATION, priority 2016, published 2024).
